Assay results taken from ChEMBL document CHEMBL1201862, “PubChem BioAssay data set” (2004).
Active and inactive are the calls of the source.

Assays:
[1] = system: Streptococcus sp. 'group A'; experiment: Streptococcus pyogenes SK(-)GAS viability under kanamycin – luminescence, BacTiterGlo, confirmation, counter-screen for streptokinase expression inhibitor project, dose response (AID 1900); type: functional, organism-based
Streptokinase A = molecular target: T1, Streptokinase A (Streptococcus pyogenes serotype M1, UniProt P10520); experiment: viability-normalized secreted streptokinase activity reduction – plasminogen activation absorbance, OD405, dose response (AID 1914); type: functional, Streptococcus pyogenes M1 GAS;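 also: secreted streptokinase activity via plasminogen activation per viability signal from cell pellet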
T1 sequence (P10520 whole entry): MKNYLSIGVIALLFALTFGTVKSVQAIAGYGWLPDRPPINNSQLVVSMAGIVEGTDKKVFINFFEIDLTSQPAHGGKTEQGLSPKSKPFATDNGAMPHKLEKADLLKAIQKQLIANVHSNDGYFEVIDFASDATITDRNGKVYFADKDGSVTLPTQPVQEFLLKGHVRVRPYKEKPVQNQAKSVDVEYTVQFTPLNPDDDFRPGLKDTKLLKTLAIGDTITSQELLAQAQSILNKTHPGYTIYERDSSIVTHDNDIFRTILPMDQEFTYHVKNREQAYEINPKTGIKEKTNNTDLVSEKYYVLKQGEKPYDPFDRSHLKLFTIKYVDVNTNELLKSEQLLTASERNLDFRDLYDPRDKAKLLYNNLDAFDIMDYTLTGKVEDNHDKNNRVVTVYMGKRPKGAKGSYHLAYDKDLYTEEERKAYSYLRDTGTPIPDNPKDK

Streptococcus = experiment: GAS UMAA2166 growth inhibition – luminescence, BacTiterGlo, counter-screen for streptokinase expression inhibitor project, dose response (AID 1915); type: functional, organism-based;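 also: potency for reduction of bacterial viability or growth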
CHO-K1 = experiment: (§1) Counterscreen for antagonists of the orexin 1 receptor (OX1R; HCRTR1): Homogeneous time resolved fluorescence (HTRF)-based cell-based dose response assay to identify antagonists of the parental CHO-K1 cell line. [Related pubchem assays (depositor defined):AID434989, AID435008, AID463079, AID485270, AID492963, AID492964, AID492965, AID493232, AID504699, AID504701]; type: functional; details: Cricetulus griseus
[2] = as §1, with “Fluorescence-based” for “Homogeneous time resolved fluorescence (HTRF)-based”, “cell-based high throughput” for “cell-based”, “CHO” for “CHO-K1”; type: functional
[3] = molecular target: T2, Orexin/Hypocretin receptor type 1 (Homo sapiens, UniProt O43613); experiment: Homogeneous Time Resolved Fluorescence (HTRF)-based cell-based high throughput dose response assay for antagonists of the orexin 1 receptor (OX1R; HCRTR1). [Related pubchem assays (depositor defined):AID434989, AID435008, AID463079, AID485270, AID492963, AID492964, AID492965, AID493232, AID504717, AID504718]; type: functional
T2 sequence (O43613 whole entry): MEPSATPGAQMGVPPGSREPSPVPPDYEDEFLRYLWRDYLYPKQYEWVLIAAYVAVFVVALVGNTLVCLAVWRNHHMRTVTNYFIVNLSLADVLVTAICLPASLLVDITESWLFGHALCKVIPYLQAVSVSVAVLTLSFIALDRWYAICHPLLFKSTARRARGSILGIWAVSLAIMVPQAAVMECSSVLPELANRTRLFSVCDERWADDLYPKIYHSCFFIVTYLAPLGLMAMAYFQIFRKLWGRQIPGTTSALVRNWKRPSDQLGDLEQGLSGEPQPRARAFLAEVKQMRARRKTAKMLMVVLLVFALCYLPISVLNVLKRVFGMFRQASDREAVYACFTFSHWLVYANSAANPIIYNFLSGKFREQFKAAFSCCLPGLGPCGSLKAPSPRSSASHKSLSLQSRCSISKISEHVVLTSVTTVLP

[4] = molecular target: T2, Orexin/Hypocretin receptor type 1; experiment: Fluorescence-based cell-based high throughput dose response assay for antagonists of the orexin 1 receptor (OX1R; HCRTR1). [Related pubchem assays (depositor defined):AID434989, AID435008, AID463079, AID485270, AID492963, AID492964, AID492965, AID493232, AID504717, AID504718]; type: functional
Orexin receptor type 2 [5] = molecular target: T3, Orexin receptor type 2 (Homo sapiens, UniProt O43614); experiment: Counterscreen assay for antagonists of the orexin 1 receptor (OX1R; HCRTR1): Fluorescence-based cell-based dose response assay for antagonists of the orexin 2 receptor (OX2R; HCRTR2), run by assay provider.; type: functional
T3 sequence (O43614 whole entry): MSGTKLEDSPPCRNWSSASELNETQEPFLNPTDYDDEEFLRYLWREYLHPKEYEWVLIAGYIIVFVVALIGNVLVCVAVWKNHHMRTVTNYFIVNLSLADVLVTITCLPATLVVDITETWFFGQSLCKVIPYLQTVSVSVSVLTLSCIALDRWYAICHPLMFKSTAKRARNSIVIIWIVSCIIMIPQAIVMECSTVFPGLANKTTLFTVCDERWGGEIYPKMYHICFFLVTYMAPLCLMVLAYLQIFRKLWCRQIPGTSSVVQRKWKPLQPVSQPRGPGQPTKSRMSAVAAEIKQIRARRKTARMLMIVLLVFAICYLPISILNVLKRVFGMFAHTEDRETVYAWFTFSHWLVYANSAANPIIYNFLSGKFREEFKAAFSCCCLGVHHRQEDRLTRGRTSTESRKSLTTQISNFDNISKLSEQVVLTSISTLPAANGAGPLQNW

Orexin receptor type 2 [6] = molecular target: T3, Orexin receptor type 2; experiment: Counterscreen assay for antagonists of the orexin 1 receptor (OX1R; HCRTR1): Homogeneous Time Resolved Fluorescence (HTRF)-based cell-based dose response assay for antagonists of the orexin 2 receptor (OX2R; HCRTR2), run by assay provider.; type: functional

Cc1cnc(NC(=O)c2cc3c(C)nn(-c4ccccc4)c3s2)s1
EC50 [1]: 2.5 µM (active)
EC50 (Streptokinase A): > 150 µM (not active)
EC50 (Streptococcus): > 150 µM (not active)
IC50 (CHO-K1): > 66.2 µM (inactive)
IC50 [2]: > 49.7 µM (inactive)
IC50 [3]: 2.21 µM (active)
IC50 [4]: 2.37 µM (active)
IC50 (Orexin receptor type 2 [5]): 60.4 µM (inactive)
IC50 (Orexin receptor type 2 [6]): > 50 µM (inactive)

COc1ccc([C@@H]2CC=C(C(=O)O)[C@H](c3cccc(Cl)c3)N2S(=O)(=O)c2ccccc2C)cc1
IC50 (CHO-K1): > 66.2 µM (inactive)
IC50 [2]: > 49.7 µM (inactive)
IC50 [3]: 1.09 µM (active)
IC50 [4]: 14.6 µM (inactive)
IC50 (Orexin receptor type 2 [5]): 17.1 µM (inactive)
IC50 (Orexin receptor type 2 [6]): 3.32 µM (active)
